Where two headings read alike, the source gives them in different places.
What was measured:
[1] = molecular target: T1, hCB1 (Homo sapiens, UniProt P21554); experiment: Agonism of CB1 receptors expressed in CHO cells, forskolin cAMP assay (Protocol IX.2); assay type: cell-based; parameters: expressed in transfected cells; host or cells: CHO (h-CB1/CHO, G418-selected); settings: for hCB1 Agonism / activation at 10 µM: at 10 uM, h-CB1/CHO cells, cAMP; for activation at 10 µM: CHO
Experimental: (§1) IX. Assay for Determining Agonist and Antagonist Activity to CB1 and CB2 Receptors
(§2) 2. Agonism of CB1/CB2 Receptors Expressed in CHO Cells
(§3) h-CB1/CHO or h-CB2/CHO cells were grown in HAM's F12 DMEM medium (Sigma) with 10% FBS (Hyclone), 1% penicillin-streptomycin solution and 400 μg/ml of G418 (Sigma). 5000 cells were seeded per well in a 96 well plate and incubated for 24 hours at 37° C. in 5% CO2. On the day of assay, cells were washed with warm Krebs Buffer containing 0.1% fatty acid free (FAF) BSA (Sigma) and re-suspended in the same buffer containing 1 mM IBMX. […] At the end of incubation, cells were lysed using lysis reagent from the cAMP estimation kit and cAMP was quantitated by chemiluminescence method described in the manufacturer's instructions (DiscoveRX). EC50 values were calculated from dose response curves by nonlinear regression analysis using PRISM software.

[2] = molecular target: T1, hCB1; experiment: Antagonism of CB1 receptors expressed in CHO cells, cAMP assay against CP 55,940 (Protocol IX.1); assay type: cell-based; parameters: expressed in transfected cells; host or cells: CHO (h-CB1/CHO, G418-selected); settings: for inhibition at 10 µM: read-out: hCB1 Antagonism
Experimental: as §1
(§4) 1. Antagonism of CB1/CB2 Receptors Expressed in CHO Cells.
as §3, with “warm Krebs buffer containing 0.1%” for “warm Krebs Buffer containing 0.1%”, “quantitated by the chemiluminescence method” for “quantitated by chemiluminescence method”

[3] = molecular target: T2, hCB2 (Homo sapiens, UniProt P34972); experiment: Agonism of CB2 receptors expressed in CHO cells, forskolin cAMP assay (Protocol IX.2); assay type: cell-based; parameters: expressed in transfected cells; host or cells: CHO (h-CB2/CHO, G418-selected); settings: for IC50: cAMP
T2 sequence (P34972 whole entry): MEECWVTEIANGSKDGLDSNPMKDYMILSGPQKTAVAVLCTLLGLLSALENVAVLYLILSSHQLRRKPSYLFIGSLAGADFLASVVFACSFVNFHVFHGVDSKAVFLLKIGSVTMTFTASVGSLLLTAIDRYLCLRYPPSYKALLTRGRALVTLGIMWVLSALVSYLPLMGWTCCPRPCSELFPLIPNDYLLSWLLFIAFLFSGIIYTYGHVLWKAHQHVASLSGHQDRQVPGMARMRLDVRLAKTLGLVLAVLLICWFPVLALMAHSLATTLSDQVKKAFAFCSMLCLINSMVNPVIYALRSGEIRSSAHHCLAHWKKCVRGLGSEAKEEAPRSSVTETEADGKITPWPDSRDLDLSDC
Experimental: as §1, §2
h-CB1/CHO or h-CB2/CHO cells were grown in HAM's F12 DMEM medium (Sigma) with 10% FBS (Hyclone), 1% penicillin-streptomycin solution and 400 μg/ml of G418 (Sigma). 5000 cells were seeded per well in a 96 well plate and incubated for 24 hours at 37° C. in 5% CO2. On the day of assay, cells were washed with warm Krebs Buffer containing 0.1% fatty acid free (FAF) BSA (Sigma) and re-suspended in the same buffer containing 1 mM IBMX. Test compound or CP 55,940 as a reference compound (30 nM final concentration for CB1 testing and 10 μM of the same for CB2 testing) diluted in FFB+IBMX+Krebs buffer was added to the cells followed by forskolin addition (10 uM final concentration) and incubated for 30 minutes at room temperature. At the end of incubation, cells were lysed using lysis reagent from the cAMP estimation kit and cAMP was quantitated by chemiluminescence method described in the manufacturer's instructions (DiscoveRX). EC50 values were calculated from dose response curves by nonlinear regression analysis using PRISM software.

[4] = molecular target: T2, hCB2; experiment: Antagonism of CB2 receptors expressed in CHO cells, cAMP assay against CP 55,940 (Protocol IX.1); assay type: cell-based; parameters: expressed in transfected cells; host or cells: CHO (h-CB2/CHO, G418-selected); settings: h-CB2/CHO cells, vs 10 nM CP 55,940; for inhibition at 10 µM: CHO
Experimental: as §1, §4
h-CB1/CHO or h-CB2/CHO cells were grown in HAM's F12 DMEM medium (Sigma) with 10% FBS (Hyclone), 1% penicillin-streptomycin solution and 400 μg/ml of G418 (Sigma). 5000 cells were seeded per well in a 96 well plate and incubated for 24 hours at 37° C. in 5% CO2. On the day of assay, cells were washed with warm Krebs buffer containing 0.1% fatty acid free (FAF) BSA (Sigma) and re-suspended in the same buffer containing 1 mM IBMX. Test antagonist or reference compound (AM 251 (1-(2,4-dichlorophenyl)-5-(4-iodophenyl)-4-methyl-N-(1-piperidyl)pyrazole-3-carboxamide) for CB1 and SR144528 for CB2) diluted in FAFBSA+IBMX+Krebs buffer was added to the cells and incubated for 10 minutes at room temperature. CP 55,940 (30 nM final concentration for CB1 testing and 10 nM of the same for CB2 testing) was added to cells followed by forskolin (10 μM final concentration) and incubated for 30 minutes at room temperature. At the end of incubation, cells were lysed using lysis reagent from the cAMP estimation kit and cAMP was quantitated by the chemiluminescence method described in the manufacturer's instructions (DiscoveRX). EC50 values were calculated from dose response curves by nonlinear regression analysis using PRISM software.

[5] = molecular target: T2, hCB2; experiment: In vitro binding assay using hCB2-CHO membranes, [3H]-CP-55,940 displacement (Protocol IV); parameters: expressed in transfected cells; host or cells: CHO (hCB2-CHO, generated in-house); settings: 1 h, read-out: % Displacement Protocol IV
Summary of the method: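 Compounds were tested at a single 300 nM final concentration for displacing 0.75 nM [3H]-CP-55,940 from hCB2-CHO membranes (1 h, 30 °C, 50 mM Tris pH 7.4, 5 mM MgCl2, 1 mM EDTA, 0.1% BSA). Filter-bound radioactivity was counted, with 0.5 μM unlabelled CP-55,940 for nonspecific binding; results are % displacement.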

[6] = molecular target: CB1 (Rattus norvegicus, UniProt P20272); experiment: Rat CB1 receptor binding using brain membrane, [3H]SR141716A displacement (Protocol I); parameters: CB1 receptor present in a rat brain membrane preparation; from tissue; host or cells: rat brain membrane; inhibition: dose or concentration left out as unconfirmed; settings: 1 h; rat brain membrane, [3H]SR141716A displacement; read-out: % Displacement Protocol I
Sequence of CB1 (P20272 whole entry): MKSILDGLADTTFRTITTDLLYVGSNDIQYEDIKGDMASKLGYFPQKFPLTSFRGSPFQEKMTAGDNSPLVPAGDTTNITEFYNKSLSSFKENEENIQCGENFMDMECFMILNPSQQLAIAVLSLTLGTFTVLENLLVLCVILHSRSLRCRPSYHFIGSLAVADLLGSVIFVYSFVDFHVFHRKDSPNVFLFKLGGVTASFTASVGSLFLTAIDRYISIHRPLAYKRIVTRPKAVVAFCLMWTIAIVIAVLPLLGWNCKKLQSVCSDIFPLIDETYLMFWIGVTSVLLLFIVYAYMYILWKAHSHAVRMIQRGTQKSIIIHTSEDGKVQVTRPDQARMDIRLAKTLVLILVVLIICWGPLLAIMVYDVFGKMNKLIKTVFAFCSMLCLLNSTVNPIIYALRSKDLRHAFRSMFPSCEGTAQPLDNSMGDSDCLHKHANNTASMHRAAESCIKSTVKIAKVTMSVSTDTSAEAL

[7] = at 10 uM, h-CB1/CHO cells, cAMP, vs 30 nM CP 55,940
[8] = h-CB2/CHO cells, read-out: hCB2 Agonism IC50
[9] = hCB2-CHO membranes, [3H]-CP-55,940 displacement
[10] = hCB2 Agonism IC50, h-CB2/CHO cells

T1 sequence (P21554 whole entry): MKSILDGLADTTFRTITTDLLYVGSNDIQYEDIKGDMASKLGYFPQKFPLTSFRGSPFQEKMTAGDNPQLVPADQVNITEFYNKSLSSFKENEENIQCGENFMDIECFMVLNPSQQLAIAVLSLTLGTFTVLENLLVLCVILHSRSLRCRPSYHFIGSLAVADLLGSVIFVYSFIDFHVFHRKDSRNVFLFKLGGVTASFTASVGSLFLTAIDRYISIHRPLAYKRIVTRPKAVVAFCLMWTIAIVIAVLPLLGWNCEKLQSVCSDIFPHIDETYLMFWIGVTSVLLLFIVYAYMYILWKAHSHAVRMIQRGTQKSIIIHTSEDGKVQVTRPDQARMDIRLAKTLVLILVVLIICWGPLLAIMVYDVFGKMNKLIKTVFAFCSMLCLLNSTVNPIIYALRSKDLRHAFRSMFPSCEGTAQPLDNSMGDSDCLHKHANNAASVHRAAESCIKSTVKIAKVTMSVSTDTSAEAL

Structure (SMILES) | hCB1 Agonism [1] [% at] | inhibition at 10 µM [2, 7] [%] | IC50 [3, 8] [nM] | inhibition at 10 µM [4] [%] | hCB1 Antagonism [2, 7] [% at 10 uM] | hCB2 Antagonism ([4]; at 10 uM) [% at] | melting point [°C] | activation at 10 µM [1] [%] | hCB2 Agonism ([3]; bare number, no unit or concentration given) | inhibition at 0.3 µM [5, 9] [%] | inhibition [6] [%] | inhibition at 0.3 µM [5] [%] | IC50 [3, 10] [nM] | IC50 [1] [nM] | inhibition at 10 µM ([2]; CHO) [%]
CC(C)(C)NC(=O)c1nn(-c2ccc(F)cc2F)c2c1[C@@H]1CC[C@H]2C1 (single isomer, unassigned) [Example 304] | 55 | 0 | 0.93 | 51.6 | – | – | – | – | – | – | – | – | – | – | –
CC(C)(C)NC(=O)c1nn(-c2ccc(F)cc2F)c2c1[C@@H]1CC[C@H]2C1 (single isomer, unassigned) [Example 305] | 20 | – | 2.16 | – | 0 | 37.45 | – | – | – | – | – | – | – | – | –
O=C(NC1CCCCC1)c1nn(-c2ccccc2)c2c1C1CCC2C1 (centres unmarked) [Example 202, N(3)-Cyclohexyl-1-phenyl-4,5,6,7-tetrahydro-1H-4,7-methano-indazole-3-carboxamide] | – | 0 | – | – | – | – | 107 | 0 | 16.79 | 70.1 | 28.2 | – | – | – | –
O=C(Nc1ccc(F)cc1F)c1nn(-c2ccc(Cl)cc2Cl)c2c1C1CCC2C1 (centres unmarked) [Example 244, N(3)-(2,4-Difluorophenyl)-1-(2,4-dichlorophenyl)-4,5,6,7-tetrahydro-1H-4,7-methano-indazole-3-carboxamide] | – | 61.5 | 5.66 | 25.3 | – | – | 152 to 155 | 0 | – | – | – | 88.3 | – | – | –
O=C(NCc1ccccc1F)c1nn(-c2ccc(Cl)cc2Cl)c2c1C1CCC2C1 (centres unmarked) [Example 245, N(3)-(2-Fluorobenzyl)-1-(2,4-dichlorophenyl)-4,5,6,7-tetrahydro-1H-4,7-methano-indazole-3-carboxamide] | – | 70.7 | – | 32.9 | – | – | 54 | 0 | – | 84.8 | – | – | 50.4 | – | –
O=C(NCc1ccc(F)cc1F)c1nn(-c2ccc(Cl)cc2Cl)c2c1C1CCC2C1 (centres unmarked) [Example 247, N(3)-(2,4-Difluorobenzyl)-1-(2,4-dichlorophenyl)-4,5,6,7-tetrahydro-1H-4,7-methano-indazole-3-carboxamide] | – | 75.3 | – | 29.2 | – | – | 73 to 76 | 0 | – | 79.1 | – | – | 5.44 | – | –
O=C(NNc1cccc(F)c1)c1nn(-c2ccc(Cl)cc2Cl)c2c1C1CCC2C1 (centres unmarked) [Example 266, N(3)-[(3-Fluorophenyl)amino]-1-(2,4-dichlorophenyl)-4,5,6,7-tetrahydro-1H-4,7-methano-indazole-3-carboxamide] | – | – | – | 27.7 | – | – | 190 | 12.1 | – | 62 | 34.5 | – | 14 | – | –
O=C(NNc1ccccc1F)c1nn(-c2ccc(F)cc2F)c2c1C1CCC2C1 (centres unmarked) [Example 288, N(3)-[(2-Fluorophenyl)amino]-1-(2,4-difluorophenyl)-4,5,6,7-tetrahydro-1H-4,7-methano-indazole-3-carboxamide] | – | 55.3 | – | 17.1 | – | – | 172 to 175 | 0 | – | 60.8 | – | – | 4.76 | – | –
O=C(NC(CO)c1ccccc1)c1nn(-c2ccc(F)cc2F)c2c1C1CCC2C1 [Example 302, N5-[(1S)-2-Hydro-1-phenylethyl]-3-(2,4-difluorophenyl)-3,4-diazatricyclo[5.2.1.0.^2,6]deca-2(6),4-diene-5-carboxamide] | – | – | 9.75 | 0 | – | – | 91 | 19 | – | – | – | 71.8 | – | – | –
CC(C)(C)NC(=O)c1nn(-c2ccc(F)cc2F)c2c1C1CCC2C1 (centres unmarked) [Example 303, N(3)-(tert-Butyl)-1-(2,4-difluorophenyl)-4,5,6,7-tetrahydro-1H-4,7-methano-indazole-3-carboxamide] | – | – | 0.61 | 17.6 | – | – | – | – | – | – | – | 89.7 | – | 10900 | 0
O=C(NCC1CC1)c1nn(-c2ccc(F)cc2F)c2c1C1CCC2C1 (centres unmarked) [Example 314, N(3)-Cyclopropanmethyl-1-(2,4-difluorophenyl)-4,5,6,7-tetrahydro-1H-4,7-methano-indazole-3-carboxamide] | – | 0 | 8.52 | 22.9 | – | – | 113 to 115 | 3.41 | – | – | – | 64.9 | – | – | –
O=C(NC1CCC1)c1nn(-c2ccc(F)cc2F)c2c1C1CCC2C1 (centres unmarked) [Example 315, N(3)-Cyclobutyl-1-(2,4-difluorophenyl)-4,5,6,7-tetrahydro-1H-4,7-methano-indazole-3-carboxamide] | – | 1 | 0.16 to 1.76 | 16.1 | – | – | 123 to 125 | 12.6 | – | – | – | 64.2 | – | – | –
O=C(N[C@@H](CO)c1ccccc1)c1nn(-c2ccc(F)cc2F)c2c1C1CCC2C1 (stereo partly drawn) [Example 320, N(3)-[(1R)-2-Hydroxy-1-phenylethyl]-1-(2,4-difluorophenyl)-4,5,6,7-tetrahydro-1H-4,7-methano-indazole-3-carboxamide] | – | 0 | 0.76 to 1.25 | 22.5 | – | – | – | 29.1 | – | – | – | 67.8 | – | – | –

From patent US7923465B2, “Cannabinoid receptor ligands, pharmaceutical compositions containing them, and process for their preparation” (priority 2005, dated 2011)
